# Laboratory results published in patent US20070149485A1, “SELECTED DOSAGE FOR THE TREATMENT OF CARDIOVASCULAR AND RELATED PATHOLOGIES” (Medicure International, Inc., priority 2005, published 2007).
# Assays:
# [1] = in water, alcohol, and ether; cited from earlier work
# [2] = system: high-risk patients undergoing CABG surgery with cardiopulmonary bypass; experiment: Cognitive function after CABG surgery, Mini Mental State Exam (MMSE), MEND-CABG trial; assay type: in vivo, human; settings: for MMSE at POD 30, Mean / MMSE at POD 90, Mean: score 0-30
# Method: The ability of P5P to protect against cognitive decline following CABG surgery was evaluated through the administration of a battery of validated psychometric tests pre-operatively, 4 days after surgery, 30 days after surgery, and 90 days after surgery.
# A randomized, double-blind placebo-controlled, dose-ranging, parallel-arm multi-center study was undertaken, on high-risk patients undergoing CABG surgery with cardiopulmonary bypass.
# Patients were identified as “high risk” if they had two or more of the following risk factors: • Age greater than 65 years; • Diabetes mellitus; • History of congestive heart failure; • History of a previous non-disabling stroke, transient ischemic attack, or carotid endarterectomy; • Prior CABG surgery; • Urgent CABG intervention defined as the need to stay in the hospital (although the patient may be operated on within a normal scheduling routine); • History of myocardial infarction that occurred more than 48 hours but less than 6 weeks prior to CABG surgery; and • Presence of at least one asymptomatic carotid artery stenosis (>50%) either in one or two carotid arteries.
# Approximately 900 high risk pre-CABG patients in 42 different treatment centers in North America were screened and randomized to three groups of approximately 300 patients each, prior to their bypass surgery, as follows. Patients were either placed in a control group (placebo), treated with 250 mg/day of P5P, (250 mg/day), or treated with 750 mg/day of P5P (750 mg/day). The first dose of study medication was administered at 3-10 hours prior to CABG surgery. In the event of surgery delay or rescheduling, a second pre-operative dose of P5P was administered so that all patients received study medication 3-10 hours before surgery. Treatment continued for 30 days after surgery (post operative day (POD) 30). Patients received follow-up evaluations up to and including postoperative day (POD) 4, on POD 30 and on POD 90.
# Patients were measured to assess change in cognitive function by the effects of P5P on neurological events following CABG surgery by methods of Mini Mental State Exam and psychometric testing (grooved pegboard).
# MMSE is a well validated test to screen cognitive function (Folstein, J Psychiatr Res. 1975 Nov.;12(3):189-98). It measures orientation, registration (immediate memory), short-term (but not long-term) memory, and language functioning. The test is scored from 0-30, with scores of 25-30 considered normal, scores of 18-24 indicative of mild cognitive impairment, and scores under 17 indicative of severe impairment (Crum, JAMA. 1993 May 12;269(18):2386-91). This test is appropriate to indicate the presence of cognitive impairment.
# The MMSE was administered to all 900 patients at screening, post-operative day (POD) 30, and POD 90. The MMSE score at POD 90 was analyzed using an analysis of covariance (ANOCO) model, adjusting for the MMSE score at screening. […] The results with P5P treatment (either 250 or 750 mg/day) were tabulated in Table 7, according to screening MMSE score.
# [3] = system: animal model of ischemic brain injury; settings: animal model of ischemic brain injury (Wang, et al, J. Neurosurg. 2005); cited from earlier work
compound,measurement,setting,value
"Cc1ncc(COP(=O)(O)O)c(C=O)c1O [P5P, 3-hydroxy-2-methyl-5-[(phosphonooxy)methyl]-4-pyridine-carboxaldehyde]",solubility,[1],essentially insoluble
same,"MMSE at POD 90, Adjusted Mean","[2]; 250 mg/day, MMSE screening = 25, ANOCO p 0.0067 vs placebo",27.74
same,"MMSE at POD 90, Adjusted Mean","[2]; 250 mg/day, MMSE screening = 26, ANOCO p 0.0074 vs placebo",28.08
same,"MMSE at POD 90, Adjusted Mean","[2]; 250 mg/day, MMSE screening = 27, ANOCO p 0.0116 vs placebo",28.42
same,"MMSE at POD 90, Adjusted Mean","[2]; 250 mg/day, MMSE screening = 28, ANOCO p 0.0579 vs placebo",28.76
same,"MMSE at POD 90, Adjusted Mean","[2]; 250 mg/day, MMSE screening = 29, ANOCO p 0.7654 vs placebo",29.10
same,"MMSE at POD 90, Adjusted Mean","[2]; 250 mg/day, MMSE screening = 30, ANOCO p 0.2726 vs placebo",29.44
same,"MMSE at POD 30, Mean",[2]; 250 mg/day,28.57
same,"MMSE at POD 90, Mean",[2]; 250 mg/day,28.97
same,"MMSE at POD 90, Adjusted Mean","[2]; 750 mg/day, MMSE screening = 25, ANOCO p 0.0664 vs placebo",27.41
same,"MMSE at POD 90, Adjusted Mean","[2]; 750 mg/day, MMSE screening = 26, ANOCO p 0.0701 vs placebo",27.83
same,"MMSE at POD 90, Adjusted Mean","[2]; 750 mg/day, MMSE screening = 27, ANOCO p 0.0875 vs placebo",28.25
same,"MMSE at POD 90, Adjusted Mean","[2]; 750 mg/day, MMSE screening = 28, ANOCO p 0.1926 vs placebo",28.67
same,"MMSE at POD 90, Adjusted Mean","[2]; 750 mg/day, MMSE screening = 29, ANOCO p 0.8350 vs placebo",29.08
same,"MMSE at POD 90, Adjusted Mean","[2]; 750 mg/day, MMSE screening = 30, ANOCO p 0.4317 vs placebo",29.50
same,"MMSE at POD 30, Mean",[2]; 750 mg/day,28.79
same,"MMSE at POD 90, Mean",[2]; 750 mg/day,28.99
same,protection against the decline in overall neurocognitive function associated with CABG surgery,"[2]; MEND-CABG trial, 250 or 750 mg/day",provided protection
same,"Improvements in MMSE score, 250 mg/day dose group compared with 750 mg/day dose group",[2]; in particular in patients with lower MMSE scores at screening,more significant
same,neuroprotective effects,[3],neuroprotective effects
